Measurements taken from patent publication US20250017903A1, “USE OF EDARAVONE IN TREATMENT OF AUTISM SPECTRUM DISORDER” (SUZHOU AUZONE BIOLOGICAL TECHNOLOGY CO., LTD., priority 2021, published 2025).

How the values were obtained:
cysteine (Cys) = experiment: Cys content detection in serum of VPA model rats; format: in vivo, rat; details: for Cys content in serum: after 28 days of gavage, mean ± SE
Protocol: (§1) On the 26th day after the offspring were born, the modeled VPA group was randomly divided into 6 groups: placebo group (n=19, soluplus 428 mg/kg), positive drug (cromolyn sodium) group (n=14, cromolyn sodium 6.3 mg/kg), positive drug solvent (NS) group (n=12, equal dose of normal saline), EDA low-dose group (n=12, Edaravone 3 mg/kg), EDA medium-dose group (n=12, Edaravone 10 mg/kg) and EDA high-dose group (n=22, Edaravone 30 mg/kg); and another CON group (n=9). The positive drug group and the positive drug solvent group were given intraperitoneal injection, and the placebo group and each dose group of EDA were administrated by oral gavage, once a day for 28 consecutive days. Three-chamber social tests were conducted after 14 and 28 days of administration, and an open field test was conducted after 28 days of administration. After the animals were sacrificed, 6 animals were randomly selected from each group of the placebo group and each dose group of EDA, and the prefrontal cortex, hippocampus, cerebellum and blood were collected to detect oxidative stress-related indicators, so as to detect the antioxidant capacity of the body.

[1] = system: glutathione S-transferase (GST); experiment: GST activity detection in brain tissue of VPA model rats; format: in vivo, rat; details: for GST activity in the hippocampus (HIP) / GST activity in the prefrontal cortex (PFC): after 28 days of gavage, mean ± SE
Protocol: as §1
After 28 days of gavage treatment, the results of glutathione S-transferase (GST) activity detection in the prefrontal cortex (PFC) and hippocampus (HIP) are shown in Table 4.

[2] = system: VPA-induced autism model rats; experiment: Open field test (grooming time) in VPA-induced rat autism model; format: in vivo; details: for Grooming time: VPA rats, mean ± SE, in s (unit assumed); for Grooming time compared with before treatment: self-comparison, p<0.05 (FIG. 5)
Protocol: (§2) Twenty-five SD pregnant rats were given a single intraperitoneal injection of 500 mg/kg sodium valproate (VPA) on 12.5 embryonic day and delivered on 21 embryonic day, and the male offspring were retained as the VPA group. Five pregnant rats in the control group were given a single intraperitoneal injection of normal saline of the same amount on 12.5 embryonic day and delivered on 21 embryonic day; and the male offspring were designated as the CON group.
(§3) When the offspring rats were 25th day old, an open field test was conducted to observe the grooming time, which reflects the repetitive and stereotyped behaviors of the animals); a three-chamber social test was conducted to observe the Social Index (SI), Social Index=(Time when the animal enters the unfamiliar rat area-time when the animal enters the empty cage area)÷(time when the animal enters the unfamiliar rat area+time when the animal enters the empty cage area), reflecting the social ability of experimental animals.
as §1

[3] = system: reduced glutathione (GSH); experiment: GSH detection in hippocampus and serum of VPA model rats; format: in vivo, rat; details: for GSH activity in the hippocampus (HIP) / GSH activity in the serum: after 28 days of gavage, mean ± SE
Protocol: as §1
After 28 days of gavage treatment, the results of reduced glutathione (GSH) activity detection in hippocampus (HIP) and serum are shown in Table 5.

[4] = system: superoxide dismutase (SOD); experiment: SOD activity detection in brain tissue of VPA model rats; format: in vivo, rat; details: for SOD activity in the cerebellum (CE) / SOD activity in the prefrontal cortex (PFC): after 28 days of gavage, mean ± SE
Protocol: as §1
After 28 days of gavage treatment, the results of superoxide dismutase (SOD) activity detection in the prefrontal cortex (PFC) and cerebellum (CE) are shown in Table 3.

[5] = system: VPA-induced autism model rats; experiment: Three-chamber social test (social index) in VPA-induced rat autism model; format: in vivo; details: for Social index (SI): VPA rats, mean ± SE
Protocol: as §2, §3, §1

[6] = Day 28, EDA 3 mg/kg oral gavage once a day
[7] = Day 28, EDA 10 mg/kg oral gavage once a day
[8] = Day 28, EDA 30 mg/kg oral gavage once a day
[9] = before treatment (baseline), EDA 3 mg/kg group
[10] = before treatment (baseline), EDA 10 mg/kg group
[11] = before treatment (baseline), EDA 30 mg/kg group
[12] = after 14 days of treatment, each dose group of EDA and cromolyn sodium group, p<0.01 (FIG. 4)
[13] = Day 28, cromolyn sodium 6.3 mg/kg intraperitoneal once a day
[14] = before treatment (baseline), cromolyn sodium 6.3 mg/kg group

With `CC1=NN(c2ccccc2)C(=O)C1` [EDA, 3-methyl-1-phenyl-2-pyrazolin-5-one] the “Cys content in the blood compared with the placebo group” value (cysteine (Cys); EDA high-dose group, after 28 days of treatment, p<0.0001 (FIG. 13)) was “significantly higher”, the “Cys content in serum” value (cysteine (Cys); EDA 3 mg/kg) was 0.35 ± 0.05 µmol/mL and the “Cys content in serum” value (cysteine (Cys); EDA 10 mg/kg) was 0.38 ± 0.13 µmol/mL. For the same molecule, the “Cys content in serum” value (cysteine (Cys); EDA 30 mg/kg) was 1.15 ± 0.10 µmol/mL, the “GST activity in the hippocampus (HIP)” value ([1]; EDA 3 mg/kg) was 144.5 ± 59.64 U/mgprot and the “GST activity in the prefrontal cortex (PFC)” value ([1]; EDA 3 mg/kg) was 39.54 ± 13.34 U/mgprot. For the same molecule, the “GST activity in the hippocampus (HIP)” value ([1]; EDA 10 mg/kg) was 117.7 ± 28.12 U/mgprot, the “GST activity in the prefrontal cortex (PFC)” value ([1]; EDA 10 mg/kg) was 46.93 ± 13.31 U/mgprot and the “GST activity in the hippocampus (HIP)” value ([1]; EDA 30 mg/kg) was 295.4 ± 54.67 U/mgprot. For the same molecule, the “GST activity in the prefrontal cortex (PFC)” value ([1]; EDA 30 mg/kg) was 103.8 ± 22.27 U/mgprot, the “GST activity in the prefrontal cortex (PFC) compared with the placebo group” value ([1]; high-dose EDA group, p<0.01 (FIG. 9)) was “significantly increased” and the “GST activity in the hippocampus (HIP) compared with the placebo group” value ([1]; high-dose EDA group, p<0.01 (FIG. 10)) was “significantly increased”. For the same molecule, the Grooming time [2, 6] was 6.29 ± 1.72, the Grooming time [2, 7] was 5.04 ± 1.67 and the Grooming time [2, 8] was 17.27 ± 5.78. For the same molecule, the “Grooming time compared with the placebo group” value ([2]; after 28 days of continuous gavage, each dose group of EDA, p<0.05, low and medium dose p<0.01 (FIG. 6)) was “significantly reduced”, the “Grooming time compared with before treatment” value ([2]; after 28 days of treatment) was “significantly reduced” and the “Grooming time compared with the positive drug (cromolyn sodium) group” value ([2]; after 28 days, EDA low-dose (3 mg/kg) and medium-dose (10 mg/kg) groups (FIG. 6)) was “significantly reduced”. For the same molecule, the Grooming time [2, 9] was 29.17 ± 5.82, the Grooming time [2, 10] was 20.76 ± 4.42 and the Grooming time [2, 11] was 36.3 ± 5.08. The “GSH activity in the serum compared with the placebo group” value ([3]; EDA high-dose group, p<0.01 (FIG. 12)) was “even more significantly increased”, the “GSH activity in the hippocampus (HIP) compared with the placebo group” value ([3]; EDA high-dose group, p<0.05 (FIG. 11)) was “significantly increased” and the “GSH activity in the hippocampus (HIP)” value ([3]; EDA 3 mg/kg) was 14.44 ± 7.97 U/mgprot. The “GSH activity in the serum” value ([3]; EDA 3 mg/kg) was 9.6 ± 2.14 U/mgprot, the “GSH activity in the hippocampus (HIP)” value ([3]; EDA 10 mg/kg) was 49.39 ± 10.34 U/mgprot and the “GSH activity in the serum” value ([3]; EDA 10 mg/kg) was 10.35 ± 1.92 U/mgprot. The “GSH activity in the hippocampus (HIP)” value ([3]; EDA 30 mg/kg) was 78.87 ± 17.13 U/mgprot, the “GSH activity in the serum” value ([3]; EDA 30 mg/kg) was 21.45 ± 0.86 U/mgprot and the “SOD activity in the prefrontal cortex compared with the placebo group” value ([4]; EDA medium-dose and high-dose groups, p<0.05, high dose p<0.001 (FIG. 7)) was “significantly increased”. For the same molecule, the “SOD activity in the cerebellum (CE)” value ([4]; EDA 3 mg/kg) was 67.04 ± 11.3 U/mgprot, the “SOD activity in the prefrontal cortex (PFC)” value (from here on “SOD activity … (PFC)”) ([4]; EDA 3 mg/kg) was 124.6 ± 5.73 U/mgprot and the “SOD activity in the cerebellum (CE)” value ([4]; EDA 10 mg/kg) was 83.07 ± 3.39 U/mgprot. The “SOD activity … (PFC)” value ([4]; EDA 10 mg/kg) was 203.4 ± 14.37 U/mgprot, the “SOD activity in the cerebellum (CE)” value ([4]; EDA 30 mg/kg) was 138.7 ± 18.62 U/mgprot and the “SOD activity … (PFC)” value ([4]; EDA 30 mg/kg) was 315 ± 42.53 U/mgprot. For the same molecule, the “Social index (SI)” value ([5]; Day 14, EDA 3 mg/kg oral gavage once a day) was 0.37 ± 0.14, the “Social index (SI)” value ([5]; Day 14, EDA 10 mg/kg oral gavage once a day) was 0.42 ± 0.15 and the “Social index (SI)” value ([5]; Day 14, EDA 30 mg/kg oral gavage once a day) was 0.51 ± 0.11. For the same molecule, the “Social index (SI)” value [5, 6] was 0.48 ± 0.10, the “Social index (SI)” value [5, 7] was 0.53 ± 0.09 and the “Social index (SI)” value [5, 8] was 0.55 ± 0.06. For the same molecule, the “Social index compared with the placebo group” value [5, 12] was “significantly improved”, the “Social index compared with the placebo group” value ([5]; after 28 days of treatment, each dose group of EDA, p<0.05, high dose p<0.01 (FIG. 4)) was “significantly improved” and the “Social index (SI)” value [5, 9] was −0.12 ± 0.11. For the same molecule, the “Social index (SI)” value [5, 10] was −0.07 ± 0.15, the “Social index (SI)” value [5, 11] was −0.04 ± 0.12 and the “Social index compared with before treatment” value ([5]; each dose group, after 14 and 28 days of continuous gavage, self-comparison (FIG. 3)) was “increased significantly”.

In the case of `O=C(O)c1cc(=O)c2c(OCC(O)COc3cccc4oc(C(=O)O)cc(=O)c34)cccc2o1` [cromolyn sodium], the Grooming time [2, 13] is reported as 12.41 ± 2.01, the “Grooming time, positive drug solvent group versus positive drug group” value ([2]; after 28 days of treatment, cromolyn sodium 6.3 mg/kg intraperitoneal (FIG. 6)) is reported as “no significant difference” and the “Grooming time compared with before treatment” value ([2]; after 28 days of treatment) is reported as “significantly reduced”. The Grooming time [2, 14] was 27.63 ± 5.78, the “Social index (SI)” value ([5]; Day 14, cromolyn sodium 6.3 mg/kg intraperitoneal once a day) was 0.08 ± 0.37 and the “Social index (SI)” value [5, 13] was 0.42 ± 0.07. For the same molecule, the “Social index compared with the placebo group” value [5, 12] was “significantly improved”, the “Social index, positive drug versus positive drug solvent group” value ([5]; after 28 days of treatment, cromolyn sodium 6.3 mg/kg intraperitoneal (FIG. 4)) was “no significant difference” and the “Social index (SI)” value [5, 14] was −0.13 ± 0.12.
